Here are results for 19 compounds from patent publication US10351561B2, “Pyrazolo[3,4-b]pyridines and imidazo[1,5-b]pyridazines as PDE1 inhibitors” (H. Lundbeck A/S, priority 2016, dated 2019).

Assay type in all cases: biochemical
What all share (details): 15 nM tritium labelled cAMP, 1 hr at room temperature, SPA beads

For assay [1], the target named is PDE1A (Homo sapiens, UniProt P54750). Description: PDE1 inhibition assay (PDE1A), SPA with tritium labelled cAMP. On the procedure: (§1) PDE1A, PDE1B and PDE1C assays were performed as follows: the assays were performed in 60 μL samples containing a fixed amount of the PDE1 enzyme (sufficient to convert 20-25% of the cyclic nucleotide substrate), a buffer (50 mM HEPES (4-(2-hydroxyethyl)-1-piperazineethanesulfonic acid) pH 7.6; 10 mM MgCl2; 0.02% Tween20), 0.1 mg/ml BSA (bovine serum albumin), 15 nM tritium labelled cAMP and varying amounts of inhibitors. Reactions were initiated by addition of the cyclic nucleotide substrate, and reactions were allowed to proceed for 1 hr at room temperature before being terminated through mixing with 20 μL (0.2 mg) yttrium silicate SPA beads (PerkinElmer). The beads were allowed to settle for 1 hr in the dark before the plates were counted in a Wallac 1450 Microbeta counter. The measured signals were converted to activity relative to an uninhibited control (100%) and IC50 values were calculated using XIFit (model 205, IDBS).

In assay [2] the target is PDE1B (Homo sapiens, UniProt Q01064). Put plainly: PDE1 inhibition assay (PDE1B), SPA with tritium labelled cAMP. On the procedure:
Reactions were initiated by addition of the cyclic nucleotide substrate, and reactions were allowed to proceed for 1 hr at room temperature before being terminated through mixing with 20 μL (0.2 mg) yttrium silicate SPA beads (PerkinElmer).

Assay [3] deals with PDE1C (Homo sapiens, UniProt Q14123). Put plainly: PDE1 inhibition assay (PDE1C), SPA with tritium labelled cAMP. The protocol:
as §1

Where two headings read alike, the source gives them in different places.

PDE1A, sequence (P54750 whole entry): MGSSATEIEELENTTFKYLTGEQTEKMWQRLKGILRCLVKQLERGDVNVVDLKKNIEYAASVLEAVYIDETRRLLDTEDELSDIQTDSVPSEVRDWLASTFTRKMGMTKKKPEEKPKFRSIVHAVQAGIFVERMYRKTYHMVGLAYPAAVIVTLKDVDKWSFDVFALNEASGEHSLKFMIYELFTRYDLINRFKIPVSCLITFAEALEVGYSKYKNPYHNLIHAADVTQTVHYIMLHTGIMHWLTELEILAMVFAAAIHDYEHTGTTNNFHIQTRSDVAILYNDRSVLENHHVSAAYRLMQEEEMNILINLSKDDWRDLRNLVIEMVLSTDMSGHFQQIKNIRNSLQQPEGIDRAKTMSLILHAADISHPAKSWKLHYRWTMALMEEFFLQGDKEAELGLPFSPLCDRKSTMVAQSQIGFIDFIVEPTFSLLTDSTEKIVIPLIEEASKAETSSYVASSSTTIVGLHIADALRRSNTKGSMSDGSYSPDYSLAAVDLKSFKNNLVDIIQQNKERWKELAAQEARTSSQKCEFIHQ
PDE1C, sequence (Q14123 whole entry): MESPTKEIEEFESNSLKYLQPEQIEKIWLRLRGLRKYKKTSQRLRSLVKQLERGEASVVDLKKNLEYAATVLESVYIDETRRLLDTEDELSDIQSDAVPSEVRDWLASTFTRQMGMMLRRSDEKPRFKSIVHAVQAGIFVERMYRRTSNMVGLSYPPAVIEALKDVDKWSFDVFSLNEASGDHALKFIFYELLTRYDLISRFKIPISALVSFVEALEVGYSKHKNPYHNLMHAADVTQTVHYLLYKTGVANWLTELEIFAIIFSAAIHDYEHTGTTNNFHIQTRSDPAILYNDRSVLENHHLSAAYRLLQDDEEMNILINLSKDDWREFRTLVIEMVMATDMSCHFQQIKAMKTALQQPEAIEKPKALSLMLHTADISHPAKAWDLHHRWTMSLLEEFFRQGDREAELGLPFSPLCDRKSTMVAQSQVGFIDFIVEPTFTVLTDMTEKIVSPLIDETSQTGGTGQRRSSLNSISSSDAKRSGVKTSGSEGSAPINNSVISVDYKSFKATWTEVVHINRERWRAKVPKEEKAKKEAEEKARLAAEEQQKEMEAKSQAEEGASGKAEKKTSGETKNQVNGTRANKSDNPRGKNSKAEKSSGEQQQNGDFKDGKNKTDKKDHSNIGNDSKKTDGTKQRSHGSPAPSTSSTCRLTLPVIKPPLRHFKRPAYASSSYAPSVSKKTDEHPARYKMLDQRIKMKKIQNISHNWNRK
PDE1B, sequence (Q01064 whole entry): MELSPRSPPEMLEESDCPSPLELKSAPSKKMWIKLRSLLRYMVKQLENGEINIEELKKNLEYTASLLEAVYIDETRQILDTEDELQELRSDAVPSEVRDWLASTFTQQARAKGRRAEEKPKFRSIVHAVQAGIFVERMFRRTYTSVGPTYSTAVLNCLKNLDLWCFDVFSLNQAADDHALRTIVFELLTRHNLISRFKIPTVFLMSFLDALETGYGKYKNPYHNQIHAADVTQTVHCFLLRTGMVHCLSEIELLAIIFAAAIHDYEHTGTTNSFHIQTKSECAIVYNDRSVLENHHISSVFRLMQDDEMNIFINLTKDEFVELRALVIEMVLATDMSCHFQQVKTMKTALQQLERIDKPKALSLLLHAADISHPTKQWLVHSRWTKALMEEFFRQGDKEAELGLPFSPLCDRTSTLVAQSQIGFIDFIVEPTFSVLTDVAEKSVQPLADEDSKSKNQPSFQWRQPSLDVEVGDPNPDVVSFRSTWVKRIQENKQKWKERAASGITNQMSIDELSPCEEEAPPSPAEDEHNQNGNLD

One may read the IC50 as the concentration that gives 50% inhibition. Consider `CCOc1ncccc1-c1cc(NCc2nccc(C)n2)c2c(C(C)C)nn(C)c2n1` [Example 35, 6-(2-ethoxy-3-pyridyl)-3-isopropyl-1-methyl-N-[(4-methylpyrimidin-2-yl)methyl]pyrazolo[3,4-b]pyridin-4-amine], for which the IC50 came to 200 nM in assay [1]; 25 nM in assay [2] (read-out: PDE1B, IC50); 180 nM in assay [3].

On to `CCOc1ncccc1-c1cc(NCc2ccnc(OC)c2)c2c(C(C)CC)nc(C)n2n1` (single isomer, unassigned; (-)) [Example 54, (−)-2-(2-ethoxy-3-pyridyl)-N-[(2-methoxy-4-pyridyl)methyl]-7-methyl-5-[1-methylpropyl]imidazo[1,5-b]pyridazin-4-amine], for which the IC50 came out at 9.6 nM in assay [1]; 1.8 nM in assay [2] (read-out: PDE1B, IC50); 4.4 nM in assay [3].

For `CCOc1ncccc1-c1cc(NCc2noc(C)n2)c2c(C(C)C)nc(C)n2n1` [Example 12, 2-(2-ethoxy-3-pyridyl)-5-isopropyl-7-methyl-N-[(5-methyl-1,2,4-oxadiazol-3-yl)methyl]imidazo[1,5-b]pyridazin-4-amine], the IC50 was 3.6 nM in assay [1]; 0.35 nM in assay [2] (read-out: PDE1B, IC50); 4 nM in assay [3].

In the case of `Cc1ncsc1-c1cc(NCc2ncn(C)n2)c2c(C(C)C)nn(C)c2n1` [Example 61, 3-isopropyl-1-methyl-N-((1-methyl-1H-1,2,4-triazol-3-yl)methyl)-6-(4-methylthiazol-5-yl)-1H-pyrazolo[3,4-b]pyridin-4-amine], the IC50 is 32 nM in assay [1]; 4.6 nM in assay [2] (read-out: PDE1B, IC50); 46 nM in assay [3].

Regarding `COc1ncncc1-c1cc(NCc2ncn(C)n2)c2c(C(C)C)nn(C)c2n1` [Example 64, 3-isopropyl-6-(4-methoxypyrimidin-5-yl)-1-methyl-N-[(1-methyl-1,2,4-triazol-3-yl)methyl]pyrazolo[3,4-b]pyridin-4-amine], the IC50 came to 66 nM in assay [1]; 13 nM in assay [2] (read-out: PDE1B, IC50); 2.9 nM in assay [3].

Take `Cc1sccc1-c1cc(NCc2ncn(C)n2)c2c(C(C)C)nn(C)c2n1` [Example 58, 3-isopropyl-1-methyl-6-(2-methyl-3-thienyl)-N-[(1-methyl-1,2,4-triazol-3-yl)methyl]pyrazolo[3,4-b]pyridin-4-amine]: the IC50 turned out to be 29 nM in assay [1]; 4.6 nM in assay [2] (read-out: PDE1B, IC50); 31 nM in assay [3].

Regarding `CCOc1ncccc1-c1cc(NCc2cnc(C)o2)c2c(C(C)C)nc(C)n2n1` [Example 16, 2-(2-ethoxy-3-pyridyl)-5-isopropyl-7-methyl-N-[(2-methyloxazol-5-yl)methyl]imidazo[1,5-b]pyridazin-4-amine], the IC50 amounted to 19 nM in assay [1]; 2.8 nM in assay [2] (read-out: PDE1B, IC50); 16 nM in assay [3].

Turning to `CCOc1ncccc1-c1cc(NCc2cnn(C)c2)c2c(C(C)CC)nc(C)n2n1` (single isomer, unassigned; (-)) [Example 47, (−)-2-(2-ethoxy-3-pyridyl)-7-methyl-N-[(1-methylpyrazol-4-yl)methyl]-5-[1-methylpropyl]imidazo[1,5-b]pyridazin-4-amine], the IC50 in assay [1] stood at 44 nM; in assay [2] (read-out: PDE1B, IC50), 7.5 nM; in assay [3], 32 nM.

Regarding `CCOc1ncccc1-c1cc(NCc2cnn(C)c2)c2c(C(C)C)nn(C)c2n1` [Example 19, 6-(2-ethoxy-3-pyridyl)-3-isopropyl-1-methyl-N-[(1-methylpyrazol-4-yl)methyl]pyrazolo[3,4-b]pyridin-4-amine], the IC50 in assay [1] was 44 nM; in assay [2] (read-out: PDE1B, IC50), 5.8 nM; in assay [3] it was 56 nM.

`CCOc1ncccc1-c1cc(NCc2cccnc2C(F)(F)F)c2c(C(C)C)nc(C)n2n1` [Example 80, 2-(2-ethoxy-3-pyridyl)-5-isopropyl-7-methyl-N-[[2-(trifluoromethyl)-3-pyridyl]methyl]imidazo[1,5-b]pyridazin-4-amine]: the IC50 in assay [1] came out at 74 nM; in assay [2] (read-out: PDE1B, IC50), 15 nM; in assay [3] it was 72 nM.

Turning to `CCOc1ncccc1-c1cc(NCc2cn[nH]c2)c2c(C(C)C)nc(C)n2n1` [Example 18, 2-(2-ethoxy-3-pyridyl)-5-isopropyl-7-methyl-N-(1H-pyrazol-4-ylmethyl)imidazo[1,5-b]pyridazin-4-amine], the IC50 was determined as 33 nM in assay [1]; 5.7 nM in assay [2] (read-out: PDE1B, IC50); 16 nM in assay [3].

As for `CCOc1ncccc1-c1cc(NCc2cccc(C)n2)c2c(C(C)C)nn(C)c2n1` [Example 42, 6-(2-ethoxy-3-pyridyl)-3-isopropyl-1-methyl-N-[(6-methyl-2-pyridyl)methyl]pyrazolo[3,4-b]pyridin-4-amine], the IC50 in assay [1] is 180 nM; in assay [2] (read-out: PDE1B, IC50), 20 nM; in assay [3], 200 nM.

For the compound `CCOc1cnccc1-c1cc(NCc2ncn(C)n2)c2c(C(C)C)nn(C)c2n1` [Example 68, 6-(3-ethoxy-4-pyridyl)-3-isopropyl-1-methyl-N-[(1-methyl-1,2,4-triazol-3-yl)methyl]pyrazolo[3,4-b]pyridin-4-amine], the IC50 was found to be 58 nM in assay [1]; 5.5 nM in assay [2] (read-out: PDE1B, IC50); 59 nM in assay [3].

Take `CC(C)c1nn(C)c2nc(-c3cccs3)cc(NCc3ncn(C)n3)c12` [Example 65, 3-isopropyl-1-methyl-N-[(1-methyl-1,2,4-triazol-3-yl)methyl]-6-(2-thienyl)pyrazolo[3,4-b]pyridin-4-amine]: the IC50 in assay [1] was found to be 31 nM; in assay [2] (read-out: PDE1B, IC50), 5.1 nM; in assay [3] it was 46 nM.

As to `CCCOc1ncccc1-c1cc(NCc2ncn(C)n2)c2c(C(C)C)nc(C)n2n1` [Example 72, 5-isopropyl-7-methyl-N-[(1-methyl-1,2,4-triazol-3-yl)methyl]-2-(2-propoxy-3-pyridyl)imidazo[1,5-b]pyridazin-4-amine], the IC50 in assay [1] turned out to be 1.4 nM; in assay [2] (read-out: PDE1B, IC50) it was 0.27 nM; in assay [3] it was 1.1 nM.

Take `CCCOc1ncccc1-c1cc(NCc2ncn(C)n2)c2c(C(C)C)nn(C)c2n1` [Example 33, 3-isopropyl-1-methyl-N-[(1-methyl-1,2,4-triazol-3-yl)methyl]-6-(2-propoxy-3-pyridyl)pyrazolo[3,4-b]pyridin-4-amine]: the IC50 was found to be 3.4 nM in assay [1]; 0.42 nM in assay [2] (read-out: PDE1B, IC50); 5.2 nM in assay [3].

For `CCOc1ncccc1-c1cc(NCc2cnn(C)n2)c2c(C(C)C)nn(C)c2n1` [Example 26, 6-(2-ethoxypyridin-3-yl)-3-isopropyl-1-methyl-N-((2-methyl-2H-1,2,3-triazol-4-yl)methyl)-1H-pyrazolo[3,4-b]pyridin-4-amine], the IC50 amounted to 110 nM in assay [1]; 18 nM in assay [2] (PDE1B, IC50 (nM)); 75 nM in assay [3].

With `CCOc1ncccc1-c1cc(NCc2cccc(OC)n2)c2c(C(C)C)nn(C)c2n1` [Example 41, 6-(2-ethoxy-3-pyridyl)-3-isopropyl-N-[(6-methoxy-2-pyridyl)methyl]-1-methyl-pyrazolo[3,4-b]pyridin-4-amine], the IC50 was 440 nM in assay [1]; 110 nM in assay [2] (read-out: PDE1B, IC50); 560 nM in assay [3].

On to `CCCOc1ncccc1-c1cc(NCc2cn(C)cn2)c2c(C(C)C)nn(C)c2n1` [Example 34, 3-isopropyl-1-methyl-N-[(1-methylimidazol-4-yl)methyl]-6-(2-propoxy-3-pyridyl)pyrazolo[3,4-b]pyridin-4-amine], for which the IC50 in assay [1] is 2.7 nM; in assay [2] (read-out: PDE1B, IC50), 0.29 nM; in assay [3], 3.8 nM.
